# Columns and labels:
# [1] = system: mEPSCs in brain slices / cultured hippocampal neurons; details: cultured hippocampal neurons APP17 250 nM, ref Rice et al., 2019; cited from earlier work
# Source text: GBRs are composed of a GB1a or GB1b subunit with a GB2 subunit, which generates heterodimeric GB1a/2 and GB1b/2 receptors ([Pin and Bettler, 2016]). GB1a differs from GB1b by the presence of two N-terminal sushi domains (SD1/2). GB1a/2 and GB1b/2 receptors predominantly localize to pre- and postsynaptic sites, respectively ([Vigot et al., 2006]). APP and sAPP bind to SD1 of GB1a ([Schwenk et al., 2016]; [Dinamarca et al., 2019]; [Rice et al., 2019]). Synthetic APP peptides of 9 or 17 amino acid residues, termed APP9 and APP17, are sufficient for binding and inducing a stable conformation in SD ... || GB1a/2 receptors are abundant at axon terminals where they inhibit neurotransmitter release ([Vigot et al., 2006]). […] A GBR antagonist blocked the effect of APP17 on the mEPSC frequency, supporting a GBR-dependent mechanism.
# [2] = system: native GBRs in mouse brain membranes; assay: [^35S]GTPγS binding in brain membrane preparations
# [3] = system: eEPSCs of CA1 pyramidal neurons; assay: eEPSC amplitudes in CA1 pyramidal neurons of acute hippocampal slices; design: species or system mouse; details: APP17 250 nM or baclofen 20 µM, Cs^+-based intracellular solution
# Protocol: (§1) GB1a/2 receptors are abundant at axon terminals where they inhibit neurotransmitter release ([Vigot et al., 2006]). […] A GBR antagonist blocked the effect of APP17 on the mEPSC frequency, supporting a GBR-dependent mechanism. […] We additionally studied whether APP17 at 250 nM influences eEPSC amplitudes in acute hippocampal slices. Postsynaptic GBR-activated K^+ currents were blocked with a Cs^+-based intracellular solution, which allowed to specifically monitor the activity of presynaptic GBRs.
# (§2) Neuronal cultures and HEK293T cells were prepared as described ([Dinamarca et al., 2019]). Coverslips with hippocampal neurons (DIV 12–15) or HEK293T cells were transferred to a chamber containing a low-K^+ bath solution (in mM): 145 NaCl, 4 KCl, 5 HEPES, 5.5 D-glucose, 1 MgCl2, and 1.8 CaCl2 (pH 7.4 adjusted with NaOH). Recordings were performed at room temperature using borosilicate pipettes of 3–5 MΩ resistance tips, filled with K-gluconate-based pipette solution (in mM): 150 K-gluconate, 1.1 EGTA, 10 HEPES, 10 Tris-phosphocreatine, 0.3 NaGTP, and 4 MgATP (pH 7.2 adjusted with KOH). […] Evoked EPSCs were recorded at –60 mV with a Cs^+-based intracellular solution. […] We recorded mEPSCs in primary neuronal cultures established from embryonic (E15–17) murine hippocampus at DIV13–16 in the presence of 0.5 μM TTX at room temperature ([Dinamarca et al., 2019]). […]
# [4] = system: spontaneous neuronal activity in the auditory cortex; assay: two-photon Ca^2+ imaging of auditory cortex in anesthetized mice; details: 5 µM perfused over cortex; peptides 60 min, baclofen 15 min
# [5] = system: mEPSCs of cultured hippocampal neurons; assay: mEPSC frequency in cultured hippocampal neurons; format: cell-based, mouse; details: baclofen 30 µM, after APP17, 0.5 μM TTX
# Protocol: as §1, §2
# [6] = system: GBR-activated K^+ currents in cultured hippocampal neurons; assay: K^+ currents in cultured hippocampal neurons (patch-clamp); format: cell-based, mouse; details: for K^+ currents evoked by compound alone (in words): 5 µM, -70 mV
# Protocol: APP17 signaling through native GBRs may depend on protein-protein interactions that are not preserved in the membrane preparations used for the [^35S]GTPγS binding assay. Therefore, we tested whether APP17 influences GBR-mediated Gβγ signaling to K^+ channels in cultured hippocampal neurons using patch-clamp electrophysiology, which preserves the native environment of receptors ([Schuler et al., 2001]; [Vigot et al., 2006]). […] . Neuronal cultures and HEK293T cells were prepared as described ([Dinamarca et al., 2019]). Coverslips with hippocampal neurons (DIV 12–15) or HEK293T cells were transferred to a chamber containing a low-K^+ bath solution (in mM): 145 NaCl, 4 KCl, 5 HEPES, 5.5 D-glucose, 1 MgCl2, and 1.8 CaCl2 (pH 7.4 adjusted with NaOH). Recordings were performed at room temperature using borosilicate pipettes of 3–5 MΩ resistance tips, filled with K-gluconate-based pipette solution (in mM): 150 K-gluconate, 1.1 EGTA, 10 HEPES, 10 Tris-phosphocreatine, 0.3 NaGTP, and 4 MgATP (pH 7.2 adjusted with KOH). Upon achieving whole-cell access, cells were held in voltage-clamp mode at −70 mV (with no correction for liquid junction potential) and baclofen-induced K^+ currents were induced in a high-K^+ bath solution (in mM): 120 NaCl, 25 KCl, 5 HEPES, 5.5 D-glucose, 1 MgCl2, and 1.8 CaCl2 (pH 7.4 adjusted with NaOH). […] Schaffer collaterals were stimulated at 0.1 Hz with brief current pulses via bipolar Pt/Ir wires. Evoked EPSCs were recorded at –60 mV with a Cs^+-based intracellular solution. Baclofen and peptides were bath applied in standard ACSF at room temperature. We recorded mEPSCs in primary neuronal cultures established from embryonic (E15–17) murine hippocampus at DIV13–16 in the presence of 0.5 μM TTX at room temperature ([Dinamarca et al., 2019]). APP17 (250 nM) and (R)-baclofen (30 μM) were applied via superfusion. Template matching with pClamp 10 software (Molecular Devices) was used to detect individual mEPSCs.
# [7] = target: T1, GB1a/2 receptors (Homo sapiens, UniProt O75899+Q9UBS5); assay: inter-subunit FRET conformational sensor (HA-GB1a-ACP / Flag-SNAP-GB2) in HEK293T cells; details: for Fig. 2c value, 10mM GABA / Fig. 2c value, Basal: + Vehicle Basal given as 100; for Fig. 2c value, Basal: Basal (no GABA)
# [8] = system: GB1a/2 receptors in HEK293T cells; assay: APP17-TMR binding / displacement at GB1a/2 receptors in HEK293T cells; details: 10 μM peptide
# Protocol: Transfected HEK293T cells expressing Flag-GB1a and Flag-GB2 were seeded into 96-well microplates (Greiner Bio-One, Kremsmünster, Austria) at 50,000 cells/well. After 18 hr, peptides were mixed with conditioned medium at the following final concentrations: APP17-TMR (1 µM) with either APP17 (10 µM), sc-APP17 (10 µM), or PBS (vehicle); sc-APP17-TMR (1 µM) in PBS was used as a negative control. After removal of medium, peptide mixes were added to the wells and cells incubated in the dark for 1 hr at room temperature. After removal of the peptides, PBS with MgCl2 and CaCl2 (Sigma-Aldrich) was added to the wells. TMR fluorescence was monitored with a Spark microplate reader (Tecan Group, Männerdorf, Switzerland) using a monochromator (Excitation 544 nm, […] bandwidth; detection […], 25 nm bandwidth). TMR fluorescence was determined after subtraction of the sc-APP17-TMR fluorescence measured at HEK293T cells transfected with pCI plasmid.
# [9] = target: T1, GB1a/2 receptors; assay: Ca^2+ mobilization assay (Calcium 6) in HEK293T cells expressing GB1a/2; format: cell-based; design: Flag (N); expressed in transfected cells; host or cells: HEK293T cells stably expressing chimeric Gαqi; details: 1 or 10 μM
# [10] = system: GB1a/2 receptor-induced Kir3 currents in HEK293T cells; assay: Kir3 K^+ currents in transfected HEK293T cells (patch-clamp); format: cell-based
# [11] = target: T1, GB1a/2 receptors; assay: PKA luminescence assay (R-RLuc-N / C-RLuc-C) of Gαi signaling in HEK293T cells
# [12] = 1 μM APP17, best-fit, different curve for each data set
# [13] = Global (shared) fit, Vehicle and 1 μM APP17, one curve for all data sets
# [14] = Vehicle, best-fit, different curve for each data set
# T1 sequence (Q9UBS5 15-961 limits assumed): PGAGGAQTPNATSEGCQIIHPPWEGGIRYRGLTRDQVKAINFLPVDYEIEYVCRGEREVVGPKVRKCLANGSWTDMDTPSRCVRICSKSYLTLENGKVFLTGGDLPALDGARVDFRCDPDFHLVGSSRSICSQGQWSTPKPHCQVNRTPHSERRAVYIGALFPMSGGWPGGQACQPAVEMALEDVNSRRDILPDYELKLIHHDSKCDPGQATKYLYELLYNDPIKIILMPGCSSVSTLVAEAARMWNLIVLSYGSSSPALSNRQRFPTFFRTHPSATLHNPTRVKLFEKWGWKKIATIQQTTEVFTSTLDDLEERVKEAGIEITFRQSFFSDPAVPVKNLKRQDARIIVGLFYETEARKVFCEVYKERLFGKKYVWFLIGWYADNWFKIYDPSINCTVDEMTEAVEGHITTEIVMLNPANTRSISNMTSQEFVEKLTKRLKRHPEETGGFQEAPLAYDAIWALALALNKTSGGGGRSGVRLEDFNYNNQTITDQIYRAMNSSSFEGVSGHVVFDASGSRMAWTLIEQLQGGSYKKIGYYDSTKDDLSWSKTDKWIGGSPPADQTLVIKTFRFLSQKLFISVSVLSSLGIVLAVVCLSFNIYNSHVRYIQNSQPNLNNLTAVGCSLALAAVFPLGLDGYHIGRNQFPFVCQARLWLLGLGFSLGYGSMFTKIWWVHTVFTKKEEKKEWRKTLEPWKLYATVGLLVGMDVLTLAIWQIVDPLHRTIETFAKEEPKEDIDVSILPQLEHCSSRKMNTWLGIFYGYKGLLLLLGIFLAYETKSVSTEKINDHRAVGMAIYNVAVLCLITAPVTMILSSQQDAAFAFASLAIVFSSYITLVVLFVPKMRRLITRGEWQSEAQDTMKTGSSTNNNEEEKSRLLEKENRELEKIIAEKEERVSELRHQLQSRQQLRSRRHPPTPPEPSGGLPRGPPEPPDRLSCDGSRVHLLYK
# T1 sequence (O75899 42-941 partner): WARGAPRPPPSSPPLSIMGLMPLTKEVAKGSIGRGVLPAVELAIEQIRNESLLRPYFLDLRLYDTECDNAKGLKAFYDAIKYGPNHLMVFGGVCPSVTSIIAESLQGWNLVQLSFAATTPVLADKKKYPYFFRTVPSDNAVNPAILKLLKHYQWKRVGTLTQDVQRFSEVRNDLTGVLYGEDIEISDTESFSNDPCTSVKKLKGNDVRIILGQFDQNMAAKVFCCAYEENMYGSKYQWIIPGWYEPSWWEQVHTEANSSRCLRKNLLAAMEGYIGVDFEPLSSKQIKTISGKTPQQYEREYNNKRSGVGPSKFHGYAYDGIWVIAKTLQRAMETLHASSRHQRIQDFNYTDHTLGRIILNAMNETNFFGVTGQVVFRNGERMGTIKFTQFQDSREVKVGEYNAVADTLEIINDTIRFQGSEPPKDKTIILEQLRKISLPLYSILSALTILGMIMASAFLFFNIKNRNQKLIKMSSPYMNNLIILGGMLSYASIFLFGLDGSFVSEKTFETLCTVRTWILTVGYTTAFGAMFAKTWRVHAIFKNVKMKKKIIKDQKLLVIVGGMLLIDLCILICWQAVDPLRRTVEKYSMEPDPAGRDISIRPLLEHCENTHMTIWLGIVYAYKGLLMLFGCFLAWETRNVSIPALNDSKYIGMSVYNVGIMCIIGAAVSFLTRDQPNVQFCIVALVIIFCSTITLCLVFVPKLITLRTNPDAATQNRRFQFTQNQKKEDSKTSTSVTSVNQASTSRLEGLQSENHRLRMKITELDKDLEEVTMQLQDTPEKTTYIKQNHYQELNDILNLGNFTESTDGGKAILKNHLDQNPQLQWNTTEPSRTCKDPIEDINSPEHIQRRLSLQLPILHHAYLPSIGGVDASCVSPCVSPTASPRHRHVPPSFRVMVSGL
compound,measurement,setting,value
C[C@H](NC[C@H](O)CP(=O)(O)Cc1ccccc1)c1ccc(Cl)c(Cl)c1 [CGP55845],mEPSC frequency (in words),[1],reduced the inhibitory effect of APP17 on the mEPSC frequency
NCCCC(=O)O [GABA],Bottom,[2]; [12],0.9821
same,HillSlope,[2]; [12],0.6558
same,Span,[2]; [12],0.4027
same,Top,[2]; [12],1.385
same,Basal,"[2]; GABA curve fit, vehicle, n=9",0.99
same,EMax,"[2]; GABA, vehicle, n=9",1.37
same,Bottom,[2]; [13],0.9874
same,HillSlope,[2]; [13],0.6587
same,Span,[2]; [13],0.3874
same,Top,[2]; [13],1.375
same,Bottom,[2]; [14],0.9919
same,HillSlope,[2]; [14],0.6543
same,Span,[2]; [14],0.3771
same,Top,[2]; [14],1.369
NCC(CC(=O)O)c1ccc(Cl)cc1 (centres unmarked) [baclofen],eEPSC amplitude (in words),[3],able to reduce the amplitudes of eEPSCs
same,spontaneous Ca^2+ transients (in words),[4],reduced spontaneous Ca^2+ transients after 15 min of perfusion
same,mEPSC frequency (in words),[5],significantly reduced mEPSC frequency
same,K^+ currents evoked by compound alone (in words),[6],activation of K^+ channels by Gβγ
Ac-DWGADTVSGDGYDAWDD-NH2 [sc-APP17],"Fig. 2c value, 10mM GABA","[7]; 1 µM peptide with 10mM GABA, replicate 2",29.41
same,"Fig. 2c value, 10mM GABA","[7]; 1 µM peptide with 10mM GABA, replicate 3",73.18
same,"Fig. 2c value, 10mM GABA","[7]; 1 µM peptide with 10mM GABA, replicate 4",69.99
same,"Fig. 2c value, 10mM GABA","[7]; 1 µM peptide with 10mM GABA, replicate 5",51.73
same,"Fig. 2c value, 10mM GABA","[7]; 1 µM peptide with 10mM GABA, replicate 6",86.53
same,"Fig. 2c value, Basal","[7]; 1 µM peptide, replicate 1",88.34
same,"Fig. 2c value, Basal","[7]; 1 µM peptide, replicate 2",87.73
same,"Fig. 2c value, Basal","[7]; 1 µM peptide, replicate 3",107.5
same,"Fig. 2c value, Basal","[7]; 1 µM peptide, replicate 4",102.7
same,"Fig. 2c value, Basal","[7]; 1 µM peptide, replicate 5",121
same,"Fig. 2c value, Basal","[7]; 1 µM peptide, replicate 6",65.57
same,"Fig. 2c value, 10mM GABA","[7]; 10 µM peptide with 10mM GABA, replicate 1",53.02
same,"Fig. 2c value, 10mM GABA","[7]; 10 µM peptide with 10mM GABA, replicate 2",53.95
same,"Fig. 2c value, 10mM GABA","[7]; 10 µM peptide with 10mM GABA, replicate 3",60.06
same,"Fig. 2c value, 10mM GABA","[7]; 10 µM peptide with 10mM GABA, replicate 4",60.44
same,"Fig. 2c value, 10mM GABA","[7]; 10 µM peptide with 10mM GABA, replicate 6",23.67
same,"Fig. 2c value, Basal","[7]; 10 µM peptide, replicate 1",90.75
same,"Fig. 2c value, Basal","[7]; 10 µM peptide, replicate 2",69.76
same,"Fig. 2c value, Basal","[7]; 10 µM peptide, replicate 3",95.95
same,"Fig. 2c value, Basal","[7]; 10 µM peptide, replicate 4",91.68
same,"Fig. 2c value, Basal","[7]; 10 µM peptide, replicate 5",104.2
same,"Fig. 2c value, Basal","[7]; 10 µM peptide, replicate 6",90.96
same,FRET in the presence of 10 mM GABA (in words),[7]; 1 or 10 μM peptide + 10 mM GABA,no significant differences in FRET
same,"FRET, basal, peptide alone (in words)",[7]; 1 or 10 μM peptide without GABA,no significant changes in FRET
same,displacement of 1 μM APP17-TMR from GB1a/2 receptors (in words),[8],not sc-APP17 displaced 1 μM APP17-TMR from GB1a/2 receptors
same,intracellular Ca^2+ mobilization (in words),[9],did not increase intracellular Ca^2+
same,GABA-induced Kir3 currents in presence of peptide (in words),[10]; 5 µM GABA,nor did the peptides alter K^+ currents in the presence of 5 µM GABA
same,Kir3 K^+ currents evoked by compound alone (in words),[10]; transfected HEK293T cells,did not trigger K^+ currents
same,spontaneous Ca^2+ transients (in words),[4],no significant effect compared to ACSF
same,GABA-mediated PKA inactivation in presence of peptide (in words),[11]; 10 μM peptide,GABA-mediated PKA inactivation was comparable
same,effect of peptide alone on luminescence/receptor activity (in words),[11]; 10 μM peptide,"no agonistic, inverse agonistic, or antagonistic properties"
same,receptor activity with APP695 in cis (in words),"[11]; peptide, APP695 in cis",did not significantly alter GB1/2 receptor activity
same,baclofen-induced K^+ currents in presence of peptide (in words),[6]; 5 µM peptide + 5 µM baclofen,elicited currents of similar amplitudes as baclofen alone
same,K^+ currents evoked by compound alone (in words),[6],did not elicit any currents

# Source: paper PMC9917443 (eLife, 2023)
